Columns and labels:
[1] = Ligand reduction potential; assay type: physicochemical; details: vs n.h.e., 298K, 0.1 M NBu4ClO4, MeCN
From the text: The quenching process with urate is believed to involve an intermediate exciplex, involving a short-lived bonding π-π interaction. This is disfavoured as the sensitising chromophore becomes less susceptible to accept electron density and is reflected in the ligand reduction potential. For compound (7), this was −1.52 V (vs n.h.e., 298K, 0.1 M NBu4ClO4, MeCN), which compares to −1.07 V for the cyclohexyl tetraazatriphenylene and −1.60 V for the 1-aza-xanthone (2). Terbium complexes of L^1 and L^2 resisted urate and ascorbate quenching more effectively than the comparator complexes.

human serum albumin = human serum albumin (Homo sapiens, UniProt P02768); assay: Emission lifetime in the presence of human serum albumin, urate and ascorbate; details: 0.4 mM human serum albumin, 0.1 mM sodium urate, 0.2 mM ascorbate, pH 7.4, 298K, 0.1M HEPES
Protocol: In the presence of 0.4 mM human serum albumin, 0.1 mM sodium urate and 0.2 mM ascorbate, (pH 7.4, 298K, 0.1M HEPES), the emission lifetime of [TbL^2]^3+ was within 10% of its value in water, i.e. 2.1 ms, compared to 0.7 ms and 0.5 ms for [TbL^6]^3+ and [TbL^4]^3+ respectively under the same conditions.

[2] = test system: Chinese hamster ovarian cells; details: observed previously under the same standard conditions; cited from earlier work
[3] = Stern-Volmer excited state quenching by urate; assay type: physicochemical; details: pH 7.4, 0.1 M HEPES, 298K
From the text: (§1) A key issue in assessing the utility of such luminescent complexes for intracellular application is their sensitivity towards quenching by endogenous electron-rich species (e.g. urate/ascorbate) either when the complexes are free or protein bound. Accordingly, the Stern-Volmer quenching constants (KSv^−1/mM) defining their relative sensitivity to quenching can be assessed comparatively, (Table 2).

[4] = Stern-Volmer excited state quenching by iodide; assay type: physicochemical; details: pH 7.4, 0.1 M HEPES, 298K
From the text: as §1

[5] = Stern-Volmer excited state quenching by ascorbate; assay type: physicochemical; details: pH 7.4, 0.1 M HEPES, 298K
From the text: as §1

[6] = Absorption spectrum of Tb(III) complexes; assay type: physicochemical; details: for γmax: absorption, Tb(III) complexes; for ε: molar extinction coefficient
From the text: (§2) Absorption, emission and triplet energy data for these complexes are collated in Table 1.
The absorption spectrum of [TbL^1]

[7] = Terbium emission lifetime / decay rate constants in H2O and D2O; assay type: physicochemical; details: lifetime ±10%
From the text: as §2

Emission quantum yield = assay type: physicochemical; details: quantum yields ±15%
From the text: as §2

[8] = Triplet energy measured on Gd analogues in frozen glass (77K); assay type: physicochemical; details: Gd analogues in frozen glass of Et2O/isopentane/ethanol or EtOH/MeOH (2:1)
[9] = first of two columns headed kD2O^Tb
[10] = second of two columns headed kD2O^Tb

human serum albumin, sequence (P02768 25-609): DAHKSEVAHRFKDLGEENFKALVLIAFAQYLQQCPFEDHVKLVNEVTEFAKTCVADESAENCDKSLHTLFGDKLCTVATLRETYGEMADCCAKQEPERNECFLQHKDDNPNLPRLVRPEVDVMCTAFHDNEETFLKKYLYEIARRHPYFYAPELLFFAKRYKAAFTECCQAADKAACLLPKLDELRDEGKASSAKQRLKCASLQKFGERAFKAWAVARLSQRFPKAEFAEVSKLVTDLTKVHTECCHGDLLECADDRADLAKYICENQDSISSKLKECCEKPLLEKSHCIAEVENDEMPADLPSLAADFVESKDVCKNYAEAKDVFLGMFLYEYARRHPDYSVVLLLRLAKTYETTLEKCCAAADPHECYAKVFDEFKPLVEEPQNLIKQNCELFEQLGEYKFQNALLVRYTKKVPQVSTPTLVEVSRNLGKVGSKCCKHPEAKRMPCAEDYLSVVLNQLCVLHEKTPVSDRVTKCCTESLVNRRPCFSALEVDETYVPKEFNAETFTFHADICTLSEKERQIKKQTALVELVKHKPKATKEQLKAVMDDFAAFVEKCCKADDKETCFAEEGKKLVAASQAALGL

| ligand reduction potential [1] [V] | emission lifetime (human serum albumin) [ms] | Ksv^−1 (urate) [3] [mM] | Ksv^−1 (I^−) [4] [mM] | Ksv^−1 ascorbate [5] [mM] | γmax [6] [nm] | ε [6] | kD2O^Tb [7, 9] [s⁻¹] | kD2O^Tb [7, 10] [s⁻¹] | nem^Tb (H2O) (Emission quantum yield) [%] | ET^Gd [8] | Molecule | nuclear localisation [2] |
| --- | --- | --- | --- | --- | --- | --- | --- | --- | --- | --- | --- | --- |
|  | 0.5 | 0.04 | 9.2 | 0.37 | 335 | 6,900 M^−1 cm^−1 | 610 | 350 | 37 | 24,800 cm^−1 | CC(NC(=O)CN1CCN(CC(=O)NC(C)c2ccccc2)CCN(Cc2ccc3c(=O)c4cc(C(C)(C)C)ccc4oc3n2)CCN(CC(=O)NC(C)c2ccccc2)CC1)c1ccccc1.[Tb+3] (stereo not shown) [[TbL^4]^3+] | tendency for nuclear localisation |
|  | 0.7 |  |  |  | 348 | 8,300 M^−1 cm^−1 | 640 | 580 | 40 | 23,800 cm^−1 | CC(NC(=O)CN1CCN(CC(=O)NC(C)c2ccccc2)CCN(Cc2ccc3c(n2)c2ncccc2c2nc4c(nc32)CCCC4)CCN(CC(=O)NC(C)c2ccccc2)CC1)c1ccccc1.[Tb+3] (stereo not shown) [[TbL^6]^3+] | tendency for nuclear localisation |

More lines, now with the values behind:

| Molecule | ligand reduction potential [1] [V] | emission lifetime (human serum albumin) [ms] | Ksv^−1 (urate) [3] [mM] | Ksv^−1 (I^−) [4] [mM] | Ksv^−1 ascorbate [5] [mM] | γmax [6] [nm] | ε [6] | kD2O^Tb [7, 9] [s⁻¹] | kD2O^Tb [7, 10] [s⁻¹] | nem^Tb (H2O) (Emission quantum yield) [%] | ET^Gd [8] | nuclear localisation [2] |
| --- | --- | --- | --- | --- | --- | --- | --- | --- | --- | --- | --- | --- |
| CC(C)(C)c1ccc2oc3cccnc3c(=O)c2c1 [Compound 2, 7-Tert-Butyl-1-Azaxanthone] | −1.60 |  |  |  |  |  |  |  |  |  |  |  |
| Cc1ccn(-c2ccc3c(=O)c4cc(C(C)(C)C)ccc4oc3n2)n1 [Compound 7, 7-Tert-Butyl-2-(N-3′-Methylpyrazole)-1-Azaxanthone] | −1.52 |  |  |  |  |  |  |  |  |  |  |  |
| cyclohexyl tetraazatriphenylene [reference compound] | −1.07 |  |  |  |  |  |  |  |  |  |  |  |

— US20100204467A1, “LANTHANIDE (III) ION COMPLEXING COMPOUNDS, LUMINESCENT LANTHANIDE (III) ION COMPLEXES AND USE THEREOF AS FLUORESCENT LABELS” (CIS BIO INTERNATIONAL, priority 2007, published 2010)
